Assay results: PMC10449848, “Structural basis of lipid-droplet localization of 17-beta-hydroxysteroid dehydrogenase 13” (Nature Communications, 2023)
Substitutions are numbered along the chain they refer to.

What was measured:
human HSD17B13 [1] = target: T1, human HSD17B13 (Homo sapiens, UniProt Q7Z5P4); assay: HSD17B13 purified protein biochemical enzyme activity assay, NAD(P)H-Glo luciferase readout; conditions: IC 50 mean, Supplementary Figure 8 source data, unit inferred, uM printed
T1 construct: human HSD17B13 (residues 2-300, NP_835236.2); 10x His (N); TEV protease site (N); made in house; host or cells: Sf9 (baculovirus)
T1 sequence (Q7Z5P4 2-300): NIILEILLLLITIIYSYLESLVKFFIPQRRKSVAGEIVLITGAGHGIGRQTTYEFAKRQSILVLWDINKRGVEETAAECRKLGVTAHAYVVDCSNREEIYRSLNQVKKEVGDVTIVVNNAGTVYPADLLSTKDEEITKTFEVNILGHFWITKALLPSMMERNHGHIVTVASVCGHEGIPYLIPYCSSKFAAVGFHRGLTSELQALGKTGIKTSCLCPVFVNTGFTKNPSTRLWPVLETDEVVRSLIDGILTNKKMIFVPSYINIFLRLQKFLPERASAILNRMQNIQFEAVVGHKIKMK
Description: HSD17B13 enzyme inhibition potency of test compounds was determined using a purified protein biochemical enzyme activity assay, using NAD(P)H-Glo luciferase readout (Promega). HSD17B13 enzyme uses the oxidized form of nicotinamide adenine dinucleotide (NAD^+) as a cofactor during metabolism of β-estradiol (substrate) to […] (product), while converting NAD^+ to the reduced form (NADH). The Promega NAD(P)H-Glo™ assay is a homogeneous bioluminescent assay that generates a light signal from biochemical reactions that contain NADH (or nicotinamide adenine dinucleotide phosphate, NADPH). In the presence of NADH (or NADPH), the enzyme Reductase reduces a proluciferin reductase substrate to form luciferin. Luciferin then is quantified using Ultra-Glo™ Recombinant Luciferase (rLuciferase), and the light signal produced is proportional to the amount of NAD(P)H in the sample. […] The reaction was initiated by the addition of 2 µL/well purified HSD17B13 protein (30 nM FAC in assay buffer). […] Detection reagent was incubated in the dark for 1 hour at room temperature before plates were read on the Envision plate reader (Perkin Elmer) using a luminescent protocol. Data expressed as relative luminescent units (RLUs) were then normalized to control wells using Activity Base (IDBS). […]

human HSD17B13 [2] = target: T2, human HSD17B13 (Homo sapiens, UniProt Q7Z5P4); assay: Cell assay: HEK cells stably expressing wild-type human HSD17B13, estrone production by LCMS; assay type: cell-based
T2 construct: expressed in transfected cells
T2 sequence (Q7Z5P4 20-300): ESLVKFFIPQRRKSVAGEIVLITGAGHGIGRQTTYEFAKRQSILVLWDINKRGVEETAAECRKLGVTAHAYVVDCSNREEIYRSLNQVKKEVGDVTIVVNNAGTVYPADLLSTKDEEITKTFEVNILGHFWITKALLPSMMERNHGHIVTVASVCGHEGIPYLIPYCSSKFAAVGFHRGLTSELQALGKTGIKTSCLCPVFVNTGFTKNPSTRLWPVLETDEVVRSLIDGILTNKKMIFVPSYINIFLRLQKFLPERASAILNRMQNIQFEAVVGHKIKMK
Description: Cell inhibition potency of test compounds was determined using a whole-cell HEK overexpressing HSD17B13, utilizing a liquid chromatography/mass spectrometry (LCMS) readout.
In this assay HSD17B13 uses NAD^+ as a cofactor during metabolism of β-estradiol, converting NAD^+ to NADH and β-estradiol to estrone. Estrone production is quantified by LCMS using a Sciex API-5500-Electrospray system (AB Sciex LLC, MA, USA), and used as a measure of HSD17B13 enzyme activity.
The amount of product (estrone) was then quantified by LCMS using software provided (Analyst 1.7, Hotfix 3, MultiQuant 3.0.31721.0). Data expressed as product area ratio (PAR) were then normalized to control wells using Activity Base (IDBS). Zero percent effect (ZPE) was defined as PAR generated from uninhibited HSD17B13 (vehicle control).

dog WT HSD17B13 = target: T3, dog WT HSD17B13 (Canis lupus familiaris, UniProt A0A8C0PP93); assay: Thermal shift assay (static light scattering, Tagg), dog WT HSD17B13; assay type: binding; conditions: Fig. 6d; 500 μM NAD+
T3 construct: HSD17B13 (AA1-300, XP_038300006.1); made in house; host or cells: Sf9 (baculovirus)
T3 sequence (A0A8C0PP93 1-300): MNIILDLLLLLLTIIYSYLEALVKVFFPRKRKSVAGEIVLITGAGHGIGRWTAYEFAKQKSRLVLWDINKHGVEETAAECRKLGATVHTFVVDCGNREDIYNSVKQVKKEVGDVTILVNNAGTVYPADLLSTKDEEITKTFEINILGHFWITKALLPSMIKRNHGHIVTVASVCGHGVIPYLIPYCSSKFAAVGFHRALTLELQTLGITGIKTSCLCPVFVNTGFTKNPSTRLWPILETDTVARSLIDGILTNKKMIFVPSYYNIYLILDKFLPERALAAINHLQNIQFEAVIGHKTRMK
Description: (§1) To understand ligand binding, we tested several approaches such as surface plasmon resonance and isothermal calorimetry. […] We next turned to thermal shift assays (TSA) for comparing ligand binding affinities. TSA measures the changes in the thermal denaturation temperature of a protein under different conditions such as the presence compound, changes in buffer conditions, or sequence mutations. There are various readouts including intrinsic fluorescence or light scattering signals. We chose the static light scattering methods to detect the temperatures at which our proteins start to aggregate (Tagg), which are more suitable for membrane proteins that require detergent micelles for stability.
(§2) TSA studies were run on the UNit instrument (Unchained Labs, CA, USA). […] The data was processed using the UNcle software (Unchained Labs, CA, USA), and temperatures at which the protein started aggregation were recorded as Tagg.

[3] = target: T4, dog mutant HSD17B13 (G177E/V178G/T205A/I293V) (Canis lupus familiaris, UniProt A0A8C0PP93, G177E/I293V/T205A/V178G); assay: Thermal shift assay (static light scattering, Tagg), dog mutant HSD17B13; assay type: binding; conditions: Fig. 6d, 500 μM NAD+
T4 construct: HSD17B13 (AA1-300, XP_038300006.1); made in house; host or cells: Sf9 (baculovirus)
T4 sequence (A0A8C0PP93 1-300 G177E/V178G/T205A/I293V): T3 sequence (A0A8C0PP93 1-300) with G177E, V178G, T205A, I293V
Description: as §1, §2

human HSD17B13 [4] = target: T1, human HSD17B13; assay: HSD17B13 purified protein biochemical enzyme activity assay, NAD(P)H-Glo luciferase readout; conditions: Leukotriene B4 as substrate, NAD+ cofactor

O=C(NC[C@]1(O)CC[C@H](COc2ccccc2F)CC1)c1ccc(O)c(F)c1 [Compound 1]
IC50 (human HSD17B13 [1]): 0.18 µM
activity in cell assay (human HSD17B13 [2]; HEK cells overexpressing HSD17B13): active
IC50 (human HSD17B13 [2]; HEK cells overexpressing HSD17B13, β-estradiol substrate): 570 ± 120 nM
stabilization in TSA (dog WT HSD17B13): Neither 1 nor 2 stabilized dog WT HSD17B13 significantly
binding in TSA [3]: bound compound 1 strongly
Tagg ([3]; 50 µM compound): 46.8 ± 2.2 °C
IC50 (human HSD17B13 [4]): 250 ± 90 nM
